Measured values: US11873320B2 (REATA PHARMACEUTICALS HOLDINGS, LLC, priority 2013, dated 2024)
Like-named read-outs stand apart in the source and are kept apart here.

How the values were obtained:
[1] = mouse tissue distribution, 25 mg/kg PO QD×3
[2] = system: TNFα-induced NF-κB activation; test: TNFα-induced NF-κB luciferase reporter, HeLa/NF-κB-Luc cells; type: cell-based; settings: Homo sapiens, 1 h pretreatment, TNFα 10 ng/mL 5 h
Text: NF-κB is a transcription factor that plays a central role in the regulation of many immune and inflammatory responses.

[3] = system: bleomycin-induced pulmonary fibrosis; test: bleomycin-induced pulmonary fibrosis in mice; type: in vivo, mouse; settings: 10, 30, or 100 mg/kg, 39 days
Method: Bleomycin was given on Day 0. Daily weights were measured. BAL fluid cell counts were obtained at sacrifice. […] No significant improvement in chronic inflammation score, interstitial fibrosis, or number of fibrotic foci was observed.
On the last day of dosing, lung tissue was collected and histology was performed to evaluate the extent of inflammation and interstitial fibrosis. […] Additional evaluation was performed using a rat model of pulmonary fibrosis that has been extensively characterized at the Lovelace Respiratory Research Institute. In this study, rats were challenged with bleomycin or saline by intratracheal administration on day 0. […] For the remaining animals, bronchoalveolar lavage fluid was collected on day 28 for assessment of pro-inflammatory infiltrates, and lung tissue was analyzed for hydroxyproline levels and histopathology. Challenge with bleomycin sulfate induced a substantial release of neutrophils and an increase in soluble collagen in the BALF, as well as an increase in hydroxyproline in the lung.

NADPH levels = test: WST-1 absorbance as marker of NADPH in HCT-116 cells; type: cell-based; settings: 24 hours
LPS-induced sepsis = settings: mouse, in vivo
[4] = system: cigarette smoke-induced COPD; test: cigarette smoke-induced COPD in mice; type: in vivo, mouse
Method: At the end of the study, lung tissue and BALF were collected for analysis of inflammatory infiltrates and cytokines. […] An AIM analog (63355) was tested in the same study for comparison. 63355 is a compound of the formula: […]

CYP1A2 = test: CYP450 induction in cultured human hepatocytes: CYP1A2; type: in vitro ADME; settings: up to 3 μM
[5] = system: genotoxicity (micronucleated polychromatic erythrocytes); test: in vivo micronucleus study
[6] = system: IFNγ-induced NO production; test: IFNγ-induced NO production in RAW264.7 macrophages (Griess reagent); type: cell-based; settings: Mus musculus
Method: Inhibition of IFNγ-induced NO production by AIMs is Nrf2-dependent (Dinkova-Kostova, 2005). […] Nitrite (NO2^−) levels in the media were measured as a surrogate for nitric oxide using the Griess reagent assay. Cell viability was assessed using the WST-1 assay. […] 63170, 63171, 63179, and 63189 are compounds of the formulas: […]

[7] = system: acute radiation dermatitis; test: acute radiation dermatitis model, BALB/c mice; type: in vivo, mouse
Method: Using male BALB/c mice, a 30 Gy dose of radiation was administered on day 0 (Table 3). […] The remaining mice were sacrificed on day 30 at 4 hours postdose. Plasma was collected on days 12 and 30 as well as irradiated skin samples for mRNA and histological examination. [table]

LPS-induced NO = test: in vivo NO suppression after LPS, CD-1 mice; settings: mouse

CC1(C)CC[C@]2(NC(=O)C(C)(F)F)CC[C@]3(C)[C@H](C(=O)C=C4[C@@]5(C)C=C(C#N)C(=O)C(C)(C)[C@@H]5CC[C@]43C)[C@@H]2C1 [RTA 408, N-((4aS,6aR,6bS,8aR,12aS,14aR,14bS)-11-cyano-2,2,6a,6b,9,9,12a-heptamethyl-10,14-dioxo-1,2,3,4,4a,5,6,6a,6b,7,8,8a,9,10,12a,14,14a,14b-octadecahydropicen-4a-yl)-2,2-difluoropropanamide]
levels in the CNS [1]: Notable levels were observed in the CNS
IC50 [2]: 517 ± 83 nM
inflammation and interstitial fibrosis (histology) [3]: no statistically significant effects
WST-1 absorbance (NADPH marker) (NADPH levels): increased WST-1 absorbance in a dose-dependent manner
survival, systemic LPS (LPS-induced sepsis): improved survival
lung Txnrd enzyme activity ([4]; 30 mg/kg): induced
pro-inflammatory cytokines including KC and TNFα ([4]; doses as low as 3 mg/kg, two weeks): significant suppression of pro-inflammatory cytokines
lung Gsr enzyme activity ([4]; mouse, in vivo): not altered
lung Gst enzyme activity ([4]; mouse, in vivo): decreased with treatment
lung NQO1 enzyme activity decreased by cigarette smoke ([4]; mouse, in vivo): rescued this loss
induction of enzyme activity (CYP1A2): not an inducer
Change from Control (%) ([5]; 125 mg/kg, 24-h timepoint): −8%
Number of MPCE/1000 PCE (Mean +/− SD) ([5]; 125 mg/kg, 24-h timepoint): 0.3 ± 0.27
Number of MPCE/PCE Scored ([5]; 125 mg/kg, 24-h timepoint): 3/10000
PCE/Total Erythrocytes (Mean +/− SD) ([5]; 125 mg/kg, 24-h timepoint): 0.543 ± 0.03
Change from Control (%) ([5]; 125 mg/kg, 48-h timepoint): −14%
Number of MPCE/1000 PCE (Mean +/− SD) ([5]; 125 mg/kg, 48-h timepoint): 0.2 ± 0.27
Number of MPCE/PCE Scored ([5]; 125 mg/kg, 48-h timepoint): 2/10000
PCE/Total Erythrocytes (Mean +/− SD) ([5]; 125 mg/kg, 48-h timepoint): 0.453 ± 0.03
Change from Control (%) ([5]; 250 mg/kg, 24-h timepoint): −12%
Number of MPCE/1000 PCE (Mean +/− SD) ([5]; 250 mg/kg, 24-h timepoint): 0.3 ± 0.27
Number of MPCE/PCE Scored ([5]; 250 mg/kg, 24-h timepoint): 3/10000
PCE/Total Erythrocytes (Mean +/− SD) ([5]; 250 mg/kg, 24-h timepoint): 0.520 ± 0.06
Change from Control (%) ([5]; 250 mg/kg, 48-h timepoint): −26%
Number of MPCE/1000 PCE (Mean +/− SD) ([5]; 250 mg/kg, 48-h timepoint): 0.2 ± 0.27
Number of MPCE/PCE Scored ([5]; 250 mg/kg, 48-h timepoint): 2/10000
PCE/Total Erythrocytes (Mean +/− SD) ([5]; 250 mg/kg, 48-h timepoint): 0.391 ± 0.02
Change from Control (%) ([5]; 500 mg/kg, 24-h timepoint): −28%
Number of MPCE/1000 PCE (Mean +/− SD) ([5]; 500 mg/kg, 24-h timepoint): 0.0 ± 0.00
Number of MPCE/PCE Scored ([5]; 500 mg/kg, 24-h timepoint): 0/10000
PCE/Total Erythrocytes (Mean +/− SD) ([5]; 500 mg/kg, 24-h timepoint): 0.426 ± 0.07
Change from Control (%) ([5]; 500 mg/kg, 48-h timepoint): −36%
Number of MPCE/1000 PCE (Mean +/− SD) ([5]; 500 mg/kg, 48-h timepoint): 0.3 ± 0.45
Number of MPCE/PCE Scored ([5]; 500 mg/kg, 48-h timepoint): 3/10000
PCE/Total Erythrocytes (Mean +/− SD) ([5]; 500 mg/kg, 48-h timepoint): 0.339 ± 0.05
Change from Control (%) ([5]; 1000 mg/kg, 24-h timepoint): −15%
Number of MPCE/1000 PCE (Mean +/− SD) ([5]; 1000 mg/kg, 24-h timepoint): 0.2 ± 0.27
Number of MPCE/PCE Scored ([5]; 1000 mg/kg, 24-h timepoint): 2/10000
PCE/Total Erythrocytes (Mean +/− SD) ([5]; 1000 mg/kg, 24-h timepoint): 0.498 ± 0.05
Change from Control (%) ([5]; 1000 mg/kg, 48-h timepoint): −35%
Number of MPCE/1000 PCE (Mean +/− SD) ([5]; 1000 mg/kg, 48-h timepoint): 0.1 ± 0.22
Number of MPCE/PCE Scored ([5]; 1000 mg/kg, 48-h timepoint): 1/10000
PCE/Total Erythrocytes (Mean +/− SD) ([5]; 1000 mg/kg, 48-h timepoint): 0.344 ± 0.04
Change from Control (%) ([5]; 1500 mg/kg, 24-h timepoint): −15%
Number of MPCE/1000 PCE (Mean +/− SD) ([5]; 1500 mg/kg, 24-h timepoint): 0.4 ± 0.22
Number of MPCE/PCE Scored ([5]; 1500 mg/kg, 24-h timepoint): 4/10000
PCE/Total Erythrocytes (Mean +/− SD) ([5]; 1500 mg/kg, 24-h timepoint): 0.499 ± 0.06
Change from Control (%) ([5]; 1500 mg/kg, 48-h timepoint): −39%
Number of MPCE/1000 PCE (Mean +/− SD) ([5]; 1500 mg/kg, 48-h timepoint): 0.4 ± 0.42
Number of MPCE/PCE Scored ([5]; 1500 mg/kg, 48-h timepoint): 4/10000
PCE/Total Erythrocytes (Mean +/− SD) ([5]; 1500 mg/kg, 48-h timepoint): 0.376 ± 0.05
Change from Control (%) ([5]; 2000 mg/kg, 24-h timepoint): −10%
Number of MPCE/1000 PCE (Mean +/− SD) ([5]; 2000 mg/kg, 24-h timepoint): 0.2 ± 0.27
Number of MPCE/PCE Scored ([5]; 2000 mg/kg, 24-h timepoint): 2/10000
PCE/Total Erythrocytes (Mean +/− SD) ([5]; 2000 mg/kg, 24-h timepoint): 0.531 ± 0.05
Change from Control (%) ([5]; 2000 mg/kg, 48-h timepoint): −32%
Number of MPCE/1000 PCE (Mean +/− SD) ([5]; 2000 mg/kg, 48-h timepoint): 0.1 ± 0.22
Number of MPCE/PCE Scored ([5]; 2000 mg/kg, 48-h timepoint): 1/10000
PCE/Total Erythrocytes (Mean +/− SD) ([5]; 2000 mg/kg, 48-h timepoint): 0.360 ± 0.03
genotoxicity in the in vivo micronucleus study ([5]; 125-2000 mg/kg): 63415 is Negative for Genotoxicity
IC50 ([6]; 2 h pre-treatment, 20 ng/mL IFNγ 24 h, read-out: IC50, suppression of IFNγ-induced NO production): 3.8 ± 1.2 nM
IC50 ([6]; Table 15, read-out: NO IC50 (nM), RAW264.7): 4 ± 1 nM
percentage of mice with dermatitis clinical score above 3 ([7]; oral administration): significantly lower
Percentage of mice which scored above 2 in clinical dermatitis exam ([7]; topical 0.01%, Day 12): 0.0%
Percentage of mice which scored above 2 in clinical dermatitis exam ([7]; topical 0.01%, Day 14): 0.0%
Percentage of mice which scored above 2 in clinical dermatitis exam ([7]; topical 0.01%, Day 16): 20.0%
Percentage of mice which scored above 2 in clinical dermatitis exam ([7]; topical 0.01%, Day 18): 50.0%
Percentage of mice which scored above 2 in clinical dermatitis exam ([7]; topical 0.01%, Day 20): 10.0%
Percentage of mice which scored above 2 in clinical dermatitis exam ([7]; topical 0.01%, Day 22): 40.0%
Percentage of mice which scored above 2 in clinical dermatitis exam ([7]; topical 0.01%, Day 24): 40.0%
Percentage of mice which scored above 2 in clinical dermatitis exam ([7]; topical 0.01%, Day 26): 40.0%
Percentage of mice which scored above 2 in clinical dermatitis exam ([7]; topical 0.01%, Day 28): 20.0%
Percentage of mice which scored above 2 in clinical dermatitis exam ([7]; topical 0.01%, Day 30): 10.0%
Percentage of mice which scored above 2 in clinical dermatitis exam ([7]; topical 0.1%, Day 12): 7.1%
Percentage of mice which scored above 2 in clinical dermatitis exam ([7]; topical 0.1%, Day 14): 10.0%
Percentage of mice which scored above 2 in clinical dermatitis exam ([7]; topical 0.1%, Day 16): 20.0%
Percentage of mice which scored above 2 in clinical dermatitis exam ([7]; topical 0.1%, Day 18): 80.0%
Percentage of mice which scored above 2 in clinical dermatitis exam ([7]; topical 0.1%, Day 20): 60.0%
Percentage of mice which scored above 2 in clinical dermatitis exam ([7]; topical 0.1%, Day 22): 40.0%
Percentage of mice which scored above 2 in clinical dermatitis exam ([7]; topical 0.1%, Day 24): 30.0%
Percentage of mice which scored above 2 in clinical dermatitis exam ([7]; topical 0.1%, Day 26): 10.0%
Percentage of mice which scored above 2 in clinical dermatitis exam ([7]; topical 0.1%, Day 28): 0.0%
Percentage of mice which scored above 2 in clinical dermatitis exam ([7]; topical 0.1%, Day 30): 0.0%
Percentage of mice which scored above 2 in clinical dermatitis exam ([7]; topical 1.0%, Day 14): 20.0%
Percentage of mice which scored above 2 in clinical dermatitis exam ([7]; topical 1.0%, Day 16): 10.0%
Percentage of mice which scored above 2 in clinical dermatitis exam ([7]; topical 1.0%, Day 18): 70.0%
Percentage of mice which scored above 2 in clinical dermatitis exam ([7]; topical 1.0%, Day 20): 30.0%
Percentage of mice which scored above 2 in clinical dermatitis exam ([7]; topical 1.0%, Day 22): 10.0%
Percentage of mice which scored above 2 in clinical dermatitis exam ([7]; topical 1.0%, Day 24): 0.0%
Percentage of mice which scored above 2 in clinical dermatitis exam ([7]; topical 1.0%, Day 26): 0.0%
Percentage of mice which scored above 2 in clinical dermatitis exam ([7]; topical 1.0%, Day 28): 0.0%
Percentage of mice which scored above 2 in clinical dermatitis exam ([7]; topical 1.0%, Day 30): 0.0%
percentage of mice with dermatitis clinical score above 2 ([7]; topical administration): slightly lower
NO in vivo (LPS-induced NO): dose-dependently suppresses NO in vivo
